Values of other authors, collected in patent US20210361602A1, “DOSING METHODS FOR TREATING INFLAMMATORY BOWEL CONDITIONS” (priority 2020, published 2021).

Columns and labels:
[1] = orally administered; De Vos et al.
[2] = enema by prior methods, two patients; Campieri et al. FIG. 4

levels of 5-ASA in the colon after laxative or colonic lavage [1]: decreased
systemic (plasma) levels of 5-ASA after bowel movement [2]: dramatically lower
Compound: Nc1ccc(O)c(C(=O)O)c1 [5-ASA, 5-aminosalicylic acid]
